Values after ≈ are worked out from the molar mass of the structure shown. Where two headings read alike, the source gives them in different places.
Key:
A. baumannii N16870 [1] = assay: Time-kill assay against A. baumannii N16870; type: cell-based, Acinetobacter baumannii; settings: for time-kill antibacterial activity, monotherapy (summary): considerable regrowth except colistin at 48 mg/L
Method: (§1) Time-kill studies were conducted for meropenem, colistin and three combinations (Colistin:Meropenem_1:3, Colistin:Meropenem_1:1 and Colistin:Meropenem_3:1) against A. baumannii N16870 and P. aeruginosa 19147. All experiments were performed with an initial inoculum of ˜10^6 CFU/mL in 20 mL of Cation-Adjusted Mueller-Hinton Broth (CAMHB) in 50 mL pyrogen-free and sterile polypropylene tubes. Serial samples (50 μL) were collected at 0, 1, 2, 4, and 24 h for viable counting on nutrient agar plates and the limit of detection was 20 CFU/mL. A ProtoCOL automated colony counter (Synbiosis, Cambridge, United Kingdom) was used to quantify bacteria after 24 h of incubation at 37° C. Bacterial growth was measured after 0, 1, 2, 4 and 24 h of incubation at 37° C. A growth control without antibiotic was also tested.

P. aeruginosa 19147 = assay: Time-kill assay against P. aeruginosa 19147; type: cell-based, Pseudomonas aeruginosa; settings: for time-kill antibacterial activity, monotherapy (summary): considerable regrowth; for complete bacterial killing in time-kill: monotherapy, e.g. 192 mg/L, at 24 h
Method: as §1

A. baumannii N16870 [2] = assay: Minimum inhibitory concentration, clinical isolate A. baumannii N16870; type: cell-based, Acinetobacter baumannii
[3] = tested on: Pseudomonas aeruginosa 19147; assay: Minimum inhibitory concentration, clinical isolate Pseudomonas aeruginosa 19147; type: cell-based
[4] = cited from earlier work
[5] = monotherapy 16 mg/L, up to 24 h

Row | Compound | time-kill antibacterial effect (A. baumannii N16870 [1]; [5]) | regrowth in time-kill (A. baumannii N16870 [1]; monotherapy 48 mg/L) | time-kill antibacterial effect (A. baumannii N16870 [1]; monotherapy 48 mg/L) | time-kill antibacterial activity, monotherapy (summary) (A. baumannii N16870 [1]) | time-kill antibacterial activity, monotherapy (summary) (P. aeruginosa 19147) | complete bacterial killing in time-kill (P. aeruginosa 19147) | MIC (A. baumannii N16870 [2]; Acinetobacter baumannii) | MIC ([3]; read-out: MIC) | water solubility [4] | regrowth in time-kill (A. baumannii N16870 [1]; monotherapy 16 mg/L) | minimum inhibitory concentration [MIC] (A. baumannii N16870 [2]) | MIC [3]
1 | C[C@@H](O)[C@H]1C(=O)N2C(C(=O)O)=C(S[C@@H]3CN[C@H](C(=O)N(C)C)C3)[C@H](C)[C@H]12 [meropenem] | no antibacterial effect | regrowth was observed in 4 h | marginal antibacterial activity | weak antibacterial activity | weak antibacterial activity | complete killing could not be achieved | 16 µg/mL (≈ 41.7 µM) | 16 µg/mL (≈ 41.7 µM) | approximately 16.4 mg/mL |  |  | 
2 | colistin | bacterial killing |  | bacterial killing | weak antibacterial activity | weak antibacterial activity | complete killing could not be achieved |  |  |  | regrowth was evident in 4 h | 0.5 µg/mL | 0.5 µg/mL

From patent US11278497B2, “Co-spray drying of meropenem and colistin and the uses thereof” (Purdue Research Foundation, priority 2018, dated 2022)
